Experimental findings from patent US8101761B2, “(E)-N-{3-[1-(8-fluoro-11H-10-OXA-1-AZA-dibenzo [A,D] cyclohepten-5ylidene)-propyl]-phenyl}-methanesulfonamide as glucocorticoid receptor modulator for the treatment of rheumatoid arthritis” (Eli Lilly and Company, priority 2008, dated 2012) are described below.

The subject of test [1] is IL-6 production in human skin fibroblast CCD-39SK cells. The experiment in a line: GR-mediated transrepression: IL-1β-stimulated IL-6 production in human skin fibroblast CCD-39SK cells. Type of test: cell-based. The conditions noted are these: IL-1β 1 ng/ml. On the procedure:
1. IL-1,3-stimulated IL-6 Production in Human Skin Fibroblast CCD-39SK Cells:
Briefly, human skin fibroblast CCD-39SK cells (20,000 cells/well), obtained from ATCC are seeded in 96-well plates in […] growth medium supplemented with 10% FBS, 100 U/ml penicillin, 100 ug/ml streptomycin and 2 mmol/L L-glutamine. Cells are maintained in a humidified chamber with 5% CO2 at 37° C. Test compounds are added to the wells in various concentrations ranging from a final concentration of about […] to 4.64 μM. 0.1 μM of dexamethasone is used as a positive control. 1-hour post treatment with test compound, IL-1β is added at final concentration of 1 ng/ml; and the reaction mixture is incubated overnight. 10 μl of supernatant is removed from each well and IL-6 concentrations are determined using an ELISA kit, with IL-6 concentrations being quantified by reading absorbance at 450 nm.

Test [2] concerns the target T1, human MR (mineralocorticoid receptor) (Homo sapiens, UniProt P08235).
T1 construct: expressed in transfected cells; host or cells: HEK293 (293-MR lysate)
T1 sequence (P08235 1-984): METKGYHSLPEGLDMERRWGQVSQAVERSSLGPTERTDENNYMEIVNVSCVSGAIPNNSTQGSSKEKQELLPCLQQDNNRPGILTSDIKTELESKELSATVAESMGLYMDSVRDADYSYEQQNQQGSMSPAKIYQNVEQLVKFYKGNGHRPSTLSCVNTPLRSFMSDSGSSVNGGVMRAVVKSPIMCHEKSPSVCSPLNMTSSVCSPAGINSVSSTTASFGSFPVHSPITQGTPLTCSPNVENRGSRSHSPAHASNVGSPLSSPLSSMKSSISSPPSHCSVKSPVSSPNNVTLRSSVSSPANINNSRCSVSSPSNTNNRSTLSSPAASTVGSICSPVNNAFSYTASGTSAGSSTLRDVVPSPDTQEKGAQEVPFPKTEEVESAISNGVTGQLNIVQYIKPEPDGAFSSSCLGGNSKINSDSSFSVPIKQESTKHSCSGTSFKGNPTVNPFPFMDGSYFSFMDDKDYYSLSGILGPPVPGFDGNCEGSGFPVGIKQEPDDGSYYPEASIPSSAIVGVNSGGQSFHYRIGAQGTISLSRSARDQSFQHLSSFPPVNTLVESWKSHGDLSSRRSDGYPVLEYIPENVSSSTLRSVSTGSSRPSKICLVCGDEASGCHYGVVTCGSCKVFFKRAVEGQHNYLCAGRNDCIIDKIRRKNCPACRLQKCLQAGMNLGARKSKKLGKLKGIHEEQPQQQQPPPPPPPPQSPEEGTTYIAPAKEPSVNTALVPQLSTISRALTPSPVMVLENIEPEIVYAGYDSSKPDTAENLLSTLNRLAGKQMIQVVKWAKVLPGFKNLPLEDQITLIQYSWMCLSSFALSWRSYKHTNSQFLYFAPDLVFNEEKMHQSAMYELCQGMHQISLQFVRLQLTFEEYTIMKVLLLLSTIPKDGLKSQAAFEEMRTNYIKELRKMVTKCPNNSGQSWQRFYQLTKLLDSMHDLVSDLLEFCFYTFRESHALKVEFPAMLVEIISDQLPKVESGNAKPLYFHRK
Put plainly: Nuclear hormone receptor competition binding assay, MR. The conditions noted are these: HEK293 lysate overexpressing human MR, [3H]-aldosterone; mean of n=7. On the procedure:
Cell lysates from human embryonic kidney HEK293 cells overexpressing human GR (glucocorticoid receptor), AR (androgen receptor), MR (mineralocorticoid receptor), or PR (progesterone receptor) are used for receptor-ligand competition binding assays to determine Ki values.
Briefly, steroid receptor competition binding assays are run in a buffer containing 20 mM Hepes buffer (pH=7.6), 0.2 mM EDTA, 75 mM NaCl, 1.5 mM MgCl2, 20% glycerol, 20 mM sodium molybdate, 0.2 mM DTT (dithiothreitol), 20 μg/ml aprotinin and 20 μg/ml leupeptin. Typically, steroid receptor binding assays include radio-labeled ligands, such as 0.3 nM [^3H]-dexamethasone for GR binding, 0.36 nM [^3H]-methyltrienolone for AR binding, 0.25 nM [^3H]-aldosterone for MR binding, and 0.29 nM [^3H]-methyltrienolone for PR binding, and either 20 μg 293-GR lysate, 22 μg 293-AR lysate, 20 μg 293-MR lysate or 40 μg 293-PR lysate per well. Assays are typically run in 96-well format. Competing test compounds are added at various concentrations ranging from about 0.01 nM to 10 μM. Non-specific binding is determined in the presence of 500 nM dexamethasone for GR binding, 500 nM aldosterone for MR binding, or 500 nM methyltrienolone for AR and PR binding. […] After an incubation of 2 hours, plates are read in a Wallac Microbeta counter. […]

Regarding `CC/C(=C1\c2ccc(F)cc2OCc2ncccc21)c1cccc(NS(C)(=O)=O)c1` [Compound (I), (E)-N-{3-[1-(8-Fluoro-11H-10-oxa-1-aza-dibenzo[a,d]cyclohepten-5-ylidene)-propyl]-phenyl}-methanesulfonamide], the half-maximal inhibitory concentration (IC50) in test [1] (Homo sapiens, Skin fibroblast, average of n=15, read-out: IC50, inhibition of IL-6 expression) is ~8.5 nM. Besides, the “maximal inhibition of the endogenous expression of IL-6” value in test [1] (n=15) is listed as ≥ 90%. For the same molecule, the Ki in test [2] is ~9.2 nM.

By IC50 is commonly meant the concentration that gives 50% inhibition. In general, Ki refers to the dissociation constant of the complex between target and ligand, obtained from inhibition or displacement. A high value points to weaker binding.
